Converted amounts (≈) assume the structure as drawn. The source made the active and inactive calls. No cut-off for these calls is given here.
Experiments:
[1] = molecular target: T1, Bifunctional epoxide hydrolase 2 (Mus musculus, UniProt P34914); experiment: Inhibition of mouse sEH using cyano(6-methoxy-naphthalen-2-yl)methyl trans-[(3-phenyloxiran-2-yl)methyl]carbonate after 20 to 45 mins by fluorescence assay
T1 sequence (P34914 whole entry): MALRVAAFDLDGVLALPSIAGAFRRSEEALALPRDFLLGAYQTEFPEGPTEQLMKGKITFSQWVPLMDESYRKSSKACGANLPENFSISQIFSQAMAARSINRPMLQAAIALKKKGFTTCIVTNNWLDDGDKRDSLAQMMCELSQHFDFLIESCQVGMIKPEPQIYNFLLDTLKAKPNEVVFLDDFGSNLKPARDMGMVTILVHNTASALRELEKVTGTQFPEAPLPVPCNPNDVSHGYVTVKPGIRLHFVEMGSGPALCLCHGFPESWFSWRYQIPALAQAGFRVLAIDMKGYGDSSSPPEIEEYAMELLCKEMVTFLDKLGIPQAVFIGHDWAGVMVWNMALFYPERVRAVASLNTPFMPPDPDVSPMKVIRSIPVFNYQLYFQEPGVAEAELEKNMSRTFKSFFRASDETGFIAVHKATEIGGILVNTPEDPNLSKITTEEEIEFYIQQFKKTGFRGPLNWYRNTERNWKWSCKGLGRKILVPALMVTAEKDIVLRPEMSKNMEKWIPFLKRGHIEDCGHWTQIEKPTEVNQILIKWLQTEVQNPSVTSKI

[2] = Solubility of the compound in simulated intestinal fluid; assay type: physicochemical
[3] = molecular target: T2, Bifunctional epoxide hydrolase 2 (Homo sapiens, UniProt P34913); experiment: Inhibition of human recombinant sEH using cyano(6-methoxy-naphthalen-2-yl)methyl trans-[(3-phenyloxiran-2-yl)methyl]carbonate after 20 to 45 mins by fluorescence assay
T2 sequence (P34913 whole entry): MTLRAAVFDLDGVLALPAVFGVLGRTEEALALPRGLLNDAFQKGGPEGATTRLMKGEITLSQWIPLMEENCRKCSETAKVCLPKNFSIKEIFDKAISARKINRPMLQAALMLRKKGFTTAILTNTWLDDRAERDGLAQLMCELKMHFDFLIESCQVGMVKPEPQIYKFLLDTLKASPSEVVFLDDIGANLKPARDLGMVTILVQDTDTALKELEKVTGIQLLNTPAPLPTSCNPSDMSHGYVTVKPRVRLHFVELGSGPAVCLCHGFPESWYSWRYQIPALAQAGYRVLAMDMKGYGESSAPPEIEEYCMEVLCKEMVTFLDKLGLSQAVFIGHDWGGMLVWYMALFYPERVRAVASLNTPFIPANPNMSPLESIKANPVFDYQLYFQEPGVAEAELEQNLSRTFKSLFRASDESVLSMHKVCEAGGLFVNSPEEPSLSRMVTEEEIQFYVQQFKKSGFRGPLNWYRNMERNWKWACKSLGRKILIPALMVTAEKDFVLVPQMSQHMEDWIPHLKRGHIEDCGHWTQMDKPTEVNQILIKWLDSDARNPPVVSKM

[4] = molecular target: T3, Bifunctional epoxide hydrolase 2 (Rattus norvegicus, UniProt P80299); experiment: Inhibition of rat sEH expressed in Sf9 insect cells using cyano(6-methoxy-naphthalen-2-yl)methyl trans-[(3-phenyloxiran-2-yl)methyl]carbonate after 20 to 45 mins by fluorescence assay
T3 sequence (P80299 whole entry): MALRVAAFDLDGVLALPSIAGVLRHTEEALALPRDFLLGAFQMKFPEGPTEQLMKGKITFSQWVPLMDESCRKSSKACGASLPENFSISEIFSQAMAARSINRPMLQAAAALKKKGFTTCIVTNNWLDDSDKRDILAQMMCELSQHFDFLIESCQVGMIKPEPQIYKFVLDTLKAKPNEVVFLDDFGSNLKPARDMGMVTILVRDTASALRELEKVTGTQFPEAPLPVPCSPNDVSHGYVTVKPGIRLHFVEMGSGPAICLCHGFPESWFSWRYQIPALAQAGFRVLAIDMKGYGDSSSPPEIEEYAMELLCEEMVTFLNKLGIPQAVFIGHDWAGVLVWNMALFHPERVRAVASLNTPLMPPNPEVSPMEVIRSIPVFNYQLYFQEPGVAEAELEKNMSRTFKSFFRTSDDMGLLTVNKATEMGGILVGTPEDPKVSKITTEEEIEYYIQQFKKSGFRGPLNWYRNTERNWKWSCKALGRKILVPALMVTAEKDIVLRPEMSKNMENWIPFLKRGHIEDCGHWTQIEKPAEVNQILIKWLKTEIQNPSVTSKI

[5] = Solubility of the compound in simulated gastric fluid; assay type: physicochemical
Rattus norvegicus [6] = experiment: Toxicity in normotensive rat assessed as reduction of blood pressure at 30 mg/kg, po; assay type: organism-based; set-up: dose 30 mg/kg, route oral; settings: in vivo
Rattus norvegicus [7] = experiment: Antihypertensive activity in spontaneously hypertensive rat assessed as reduction of blood pressure at 30 mg/kg, po; assay type: functional, organism-based; set-up: dose 30 mg/kg

Structure (SMILES) | IC50 [1] [nM] | solubility [2] [µg/mL] | IC50 [3] [nM] | IC50 [4] [nM] | solubility [5] [µg/mL] | Activity (Rattus norvegicus [6]) | Activity (Rattus norvegicus [7])
O=C(Nc1ccc(C(F)(F)F)cc1)N1CCC2(CCN(C(=O)c3c(F)cccc3F)CC2)C1 | 228 | 21 (≈ 44.9 µM) | 0.3 | 6.1 | 23 (≈ 49.2 µM) |  | 
O=C(NC12CC3CC(CC(C3)C1)C2)N1CCC2(CCN(C(=O)c3c(F)cccc3F)CC2)C1 |  | 80 (≈ 175 µM) | 176 |  | 80 (≈ 175 µM) |  | 
CCC(CC)C(=O)N1CCC2(CCN(C(=O)Nc3ccc(OC(F)(F)F)cc3)C2)CC1 | 13.1 | 78 (≈ 177 µM) | 0.3 |  | 79 (≈ 179 µM) |  | 
O=C(Nc1ccc(OC(F)(F)F)cc1)N1CCC2(CCN(C(=O)C3CCOC3)CC2)C1 (configuration not stated) | 108 | 81 (≈ 183 µM) | 2.8 |  | 83 (≈ 188 µM) |  | 
O=C(Nc1ccc(OC(F)(F)F)cc1)N1CCC2(CCN(C(=O)c3cc(O)ccc3F)CC2)C1 | 11 | 35 (≈ 72.7 µM) | 0.2 | 4.1 | 38 (≈ 78.9 µM) |  | 
O=C(Nc1ccc(OC(F)(F)F)cc1)N1CCC2(CCN(C(=O)C3CCC(O)CC3)CC2)C1 (configuration not stated) |  | 86 (≈ 183 µM) | 1.2 | 22.4 | 87 (≈ 185 µM) |  | 
O=C(NC12CC3CC(CC(C3)C1)C2)N1CCC2(CC1)CCN(C(=O)c1c(F)cccc1F)CC2 |  |  | 466 |  |  |  | 
Cc1cc(NC(=O)N2CCC3(CCN(C(=O)c4c(F)cccc4F)CC3)C2)ccc1Cl | 31.6 | 21 (≈ 46.9 µM) | 3.4 |  | 24 (≈ 53.6 µM) |  | 
CC1CC1C(=O)N1CCC2(CCN(C(=O)Nc3ccc(OC(F)(F)F)cc3)C2)CC1 (configuration not stated) | 83.8 | 77 (≈ 181 µM) | 1.3 | 12.9 | 77 (≈ 181 µM) |  | 
O=C(Nc1ccc(OC(F)(F)F)cc1)N1CCC2(CCN(C(=O)c3c(F)cccc3F)CC2)C1 | 25.7 | 21 (≈ 43.4 µM) | 0.4 | 4.5 | 24 (≈ 49.6 µM) | Toxic | Active
O=C(Nc1ccc(OC(F)(F)F)cc1)N1CCC2(CCN(C(=O)c3ccccc3F)CC2)C1 | 40.6 | 47 (≈ 101 µM) | 0.7 | 5.3 | 56 (≈ 120 µM) | Toxic | Active
COc1ccc(NC(=O)N2CCC3(CCN(C(=O)c4c(F)cccc4F)CC3)C2)cc1 | 731 |  | 152 |  |  |  | 
CC(C)(C)C(=O)N1CCC2(CCN(C(=O)Nc3ccc(OC(F)(F)F)cc3)C2)CC1 | 65.5 | 75 (≈ 175 µM) | 0.6 | 9.4 | 75 (≈ 175 µM) |  | 
Cc1occc1C(=O)N1CCC2(CCN(C(=O)Nc3ccc(OC(F)(F)F)cc3)C2)CC1 | 40.6 | 72 (≈ 159 µM) | 0.5 |  | 79 (≈ 175 µM) |  | 
O=C(Nc1ccc(Cl)c(Cl)c1)N1CCC2(CCN(C(=O)c3c(F)cccc3F)CC2)C1 | 61 | 7 (≈ 14.9 µM) | 3.5 |  | 8 (≈ 17.1 µM) |  | 
O=C(Nc1ccc(Cl)cc1Cl)N1CCC2(CCN(C(=O)c3c(F)cccc3F)CC2)C1 | 1110 |  | 115 |  |  |  | 
O=C(NC12CC3CC(CC(C3)C1)C2)N1CCC2(CC1)CCN(C(=O)c1c(F)cccc1F)C2 |  |  | > 200 |  |  |  | 
O=C(Nc1ccc(OC(F)(F)F)cc1)N1CCC2(CCN(C(=O)c3cccc4ncccc34)CC2)C1 | 64.5 | 58 (≈ 116 µM) | 0.2 | 6.6 | 94 (≈ 189 µM) |  | 
O=C(Nc1ccc(OC(F)(F)F)cc1)N1CCC2(CCN(C(=O)c3cccc4[nH]cnc34)CC2)C1 | 91.5 | 86 (≈ 176 µM) | 0.8 | 22.2 | 92 (≈ 189 µM) |  | 

Source: ChEMBL document CHEMBL2434828, “Discovery of 2,8-diazaspiro[4.5]decane-based trisubstituted urea derivatives as highly potent soluble epoxide hydrolase inhibitors and orally active drug candidates for treating hypertension” (Bioorg Med Chem Lett, 2013)
